Laboratory results as given in US9211485B2, “Method for producing crystalline active ingredient particles” (Jesalis Pharma GmbH, priority 2010, dated 2015).

Tests used:
Format in all cases: physicochemical
[1] = Particle size distribution by laser diffraction, wet measurement (Malvern Mastersizer E); conditions: for d50 / d90 / d10: dried product, laser diffraction wet measurement; for d50: average particle size; for d10: vol.-%; for span: span=(d90−d10)/d50
Protocol: The particle size and the particle size distribution (grain-size distribution) are determined with the help of a customary laser diffraction in a wet measurement which delivers a distribution curve of the particle sizes (Malvern System, Mastersizer E, wet measurement in the cuvette). dx means that x volume percent (vol.-%) of the particles have a diameter which is smaller than the given value. With a d50 value of 1 μm 50 vol.-% of the particles thus have a diameter of less than 1 μm (micrometer). The d50 value is a measure of the average (volume average) particle diameter and is therefore also called average particle diameter. With a d10 of 15 μm and a d90 of 50 μm 10 vol.-% of the particles have a diameter of less than 15 μm and 90 vol.-% of the particles have a diameter of less than 50 μm.
Sample preparation for wet measurement of the particle size and particle size distribution: 12.5 mg sample is dispersed in 25 ml aqueous surfactant solution (0.1% Tween 80 in water, saturated with active ingredient and filtered over a 0.2 μm filter) by means of ultrasound sonotrode (Hielscher, d=7 mm, 30% output) for 4 min. The thus-obtained suspension is added dropwise, accompanied by stirring, to the measuring vessel which contains filtered surfactant solution, until the obscuration (clouding) reaches 10% and the particle size distribution is determined by the above-described laser diffraction. An average value is determined from five measurements.
An advantage of the method according to embodiments of the invention is the generation of a very narrow particle size distribution. Additionally, largely agglomerate-free particles are obtained. This is achieved by the synchronous counterrotation of destructive grinding and ultrasound processes on the one hand and constructive crystal growth on the other hand. In the region of coarse grain sizes and agglomerates, above all the disintegration effect (grinding process and ultrasound) acts primarily in the direction of a reduction, and in the fine-grain region the crystal growth acts in the direction of an increase in the particle size. Thus, very narrow particle size distributions are achieved. The width of a particle size distribution (span) is defined as follows: span=(d90−d10)/d50.

[2] = Crystallinity by X-ray powder diffractometry (XRPD) relative to a reference material; conditions: relative to reference sample
Protocol: The crystallinity is determined by means of X-ray powder diffractometry (XRPD) (apparatus: Siemens D8, fixed sample position). After background correction the integral intensities in the X-ray diffractogram are compared with those of a reference material. This reference material can for example be a conventional precipitation product or a product according to a different production method with known crystallinity and granulation. Thus the crystallinity is a relative value which characterizes the degree of order compared with a reference sample. The relationship of the integral reflex intensities of particle sample and reference sample is therefore the quantitative expression of its difference in crystallinity.

[3] = Agglomeration factor: d90 (Ultra Turrax stirrer) / d90 (ultrasound sonotrode); conditions: d90(agglomerated particles)/d90(non-agglomerated particles)
Text: The degree of agglomeration of the crystallized active ingredient particles is described by the agglomeration factor (AGF). This is defined by the quotient of the diameter of the agglomerated particles and of the diameter of the non-agglomerated particles. This method is most informative for agglomeration when comparing the d90 values. The agglomeration factor within the meaning of the present invention is therefore defined as follows: Agglomeration factor=d90(agglomerated particles)/d90(non-agglomerated particles)
These two d90 values are determined by different energy input into the sample to be tested.
With a high input of energy, existing agglomerates decompose and the following particle size measurement delivers the d90 of the non-agglomerated particles. […]
With a low energy input on the other hand agglomerates are largely spared and the following particle size measurement delivers the d90(agglomerated particles). […] The thus-obtained suspension is added dropwise accompanied by stirring to the measuring vessel which contains filtered surfactant solution, until the obscuration reaches 10% and the particle size distribution is determined by the above-described laser diffraction. An average value is determined from five measurements. […]

Which results are given for `CC(=O)[C@H]1CC[C@H]2[C@@H]3CCC4=CC(=O)CC[C@]4(C)[C@H]3CC[C@]12C` [Example 2, progesterone]?
d50 [1]: 26 μm; d90 [1]: 45 μm; d10 [1]: 10 μm; span [1]: 1.3; crystallinity [2]: 100%; AGF (agglomeration factor) [3]: 1.1

With `CC(=O)[C@H]1CC[C@H]2[C@@H]3CCC4=CC(=O)CC[C@]4(C)[C@H]3CC[C@]12C` [Example 1, progesterone] as the molecule, how does the d50 [1] read?
The d50 was 34 μm.

And the d90 [1]?
Its d90 is 64 μm.

And the d10 [1]?
Its d10 is 12 μm.

What about the span [1] of the same molecule?
The span was 1.5.

What about the crystallinity [2] of the same molecule?
The crystallinity was 100%.

And the “AGF (agglomeration factor)” value [3]?
Its value is 1.3.
